One assay deals with B-Raf(V599E) kinase (Homo sapiens, UniProt P15056, V600E). The assay can be described thus: B-Raf(V599E) kinase assay B1. The conditions noted are these: for IC50: Method B1, construct 1; for inhibition at 1 µM: read-out: Results, % @ concentration μM. The format is biochemical. The method, then:
The test compounds were incubated with the reaction mixture at 30° C. for 2 h. […] The reaction rate was calculated using the 1.5 h to 2.5 h time frame. […] IC50 values were calculated from a series of percent inhibition values determined at a range of inhibitor concentrations using software routines as implemented in the GraphPad Prism software package.

Assay [1] deals with T1, Abl kinase (Homo sapiens, UniProt P00519).
T1 sequence (P00519 229-512): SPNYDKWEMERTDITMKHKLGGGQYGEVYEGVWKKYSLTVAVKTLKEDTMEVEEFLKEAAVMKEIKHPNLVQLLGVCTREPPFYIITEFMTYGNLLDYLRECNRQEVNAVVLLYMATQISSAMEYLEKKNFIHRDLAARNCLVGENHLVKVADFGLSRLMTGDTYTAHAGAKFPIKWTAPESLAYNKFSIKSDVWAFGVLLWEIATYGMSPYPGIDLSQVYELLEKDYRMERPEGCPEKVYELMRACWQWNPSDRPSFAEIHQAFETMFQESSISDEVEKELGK
The assay can be described thus: Abl kinase assay A1. Format: biochemical. The conditions noted are these: for inhibition at 10 µM: read-out: Results, % @ concentration μM, Method A1. The method, then:
(§1) IC50 values were calculated from a series of percent inhibition values determined at a range of inhibitor concentrations using software routines as implemented in the GraphPad Prism software package.

Assay [2] has as its target T2, phospho p-38 alpha kinase (Homo sapiens, UniProt Q16539).
T2 construct: purchased Panvera
In words: P-38 alpha kinase assay (spectrophotometric, pyruvate kinase/lactate dehydrogenase coupled). The format is biochemical. The conditions noted are these: Table 5; for IC50: assay not named, read-out: uM.

For assay [3], the target named is T3, KDR kinase (Homo sapiens, UniProt P35968, DEL940-989/E990V). In words: KDR kinase assay K1. The format is biochemical. The conditions noted are these: for IC50: Method K1; for inhibition at 10 µM: read-out: Results, % @ concentration μM, Method K1. The protocol:
as §1

The target of assay [4] is phosphorylated p-38-alpha kinase (Homo sapiens, UniProt Q16539). The assay can be described thus: P-38 alpha kinase assay P1. Format: biochemical. The settings on record: Method P1; 2 h pre-incubation before ATP.
phosphorylated p-38-alpha kinase, sequence (Q16539 1-360 isoform Q16539-2): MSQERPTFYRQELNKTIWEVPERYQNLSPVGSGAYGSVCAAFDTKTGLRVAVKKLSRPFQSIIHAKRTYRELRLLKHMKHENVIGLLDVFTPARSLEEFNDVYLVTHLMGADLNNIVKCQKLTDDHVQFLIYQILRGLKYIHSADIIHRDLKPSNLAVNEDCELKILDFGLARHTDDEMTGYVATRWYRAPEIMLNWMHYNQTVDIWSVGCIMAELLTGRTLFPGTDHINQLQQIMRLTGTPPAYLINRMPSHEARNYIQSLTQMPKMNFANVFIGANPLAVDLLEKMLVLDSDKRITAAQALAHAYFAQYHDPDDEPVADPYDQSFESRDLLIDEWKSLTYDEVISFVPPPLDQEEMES
Assay [5] has as its target T1, Abl kinase. The assay can be described thus: Abl kinase assay A2. The format is biochemical. The conditions noted are these: for IC50: Method A2, 2 h pre-incubation, 0.5 mM ATP. The method, then: as §1
Assay [6] has as its target T3, KDR kinase. The assay can be described thus: KDR kinase assay K2. The conditions noted are these: for inhibition at 1 µM: read-out: Results, % @ concentration μM.
[7] abbreviates: Method A1, read-out: Results, μM (IC50).

Each structure is given as a SMILES string.

T2 sequence (Q16539 whole entry): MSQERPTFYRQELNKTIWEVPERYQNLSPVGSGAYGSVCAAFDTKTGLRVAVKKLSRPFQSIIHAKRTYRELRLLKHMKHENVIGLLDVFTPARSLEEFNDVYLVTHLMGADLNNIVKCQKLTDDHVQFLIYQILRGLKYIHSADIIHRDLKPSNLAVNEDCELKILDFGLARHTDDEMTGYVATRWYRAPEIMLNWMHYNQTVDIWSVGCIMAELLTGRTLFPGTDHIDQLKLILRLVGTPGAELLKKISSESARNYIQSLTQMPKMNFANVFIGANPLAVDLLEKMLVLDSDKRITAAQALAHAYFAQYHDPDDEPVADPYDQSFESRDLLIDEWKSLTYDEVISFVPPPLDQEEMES
B-Raf(V599E) kinase, sequence (P15056 with tags, fused parts or gaps V600E): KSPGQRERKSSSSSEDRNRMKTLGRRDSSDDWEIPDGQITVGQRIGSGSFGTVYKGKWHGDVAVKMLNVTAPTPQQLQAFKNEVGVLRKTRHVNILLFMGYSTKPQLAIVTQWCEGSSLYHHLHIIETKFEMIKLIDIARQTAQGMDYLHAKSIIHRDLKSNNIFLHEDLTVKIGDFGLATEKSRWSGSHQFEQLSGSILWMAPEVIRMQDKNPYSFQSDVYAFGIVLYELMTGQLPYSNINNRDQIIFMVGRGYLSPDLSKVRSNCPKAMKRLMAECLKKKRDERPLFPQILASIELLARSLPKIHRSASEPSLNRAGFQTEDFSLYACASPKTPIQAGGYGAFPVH
T3 sequence (P35968 with tags, fused parts or gaps DEL940-989/E990V): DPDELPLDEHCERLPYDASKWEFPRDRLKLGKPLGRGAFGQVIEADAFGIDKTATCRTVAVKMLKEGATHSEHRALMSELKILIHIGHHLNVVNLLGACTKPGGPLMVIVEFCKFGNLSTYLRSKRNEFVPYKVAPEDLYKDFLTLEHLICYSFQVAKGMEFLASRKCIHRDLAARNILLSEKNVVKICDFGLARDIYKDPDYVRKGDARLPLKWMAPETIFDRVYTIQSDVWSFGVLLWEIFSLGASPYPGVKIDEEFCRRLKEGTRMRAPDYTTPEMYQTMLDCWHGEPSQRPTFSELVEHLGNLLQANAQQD

For `O=C(O)Cc1cccc(-n2nc(C3CCCC3)cc2NC(=O)Nc2cccc(Cl)c2Cl)c1` [Example 434, 2-(3-(3-cyclopentyl-5-(3-(2,3-dichlorophenyl)ureido)-1H-pyrazol-1-yl)phenyl)acetic acid], the IC50 stood at 0.006 µM on B-Raf(V599E) kinase; 3.9 µM at Abl kinase [1] (setting [7]); 1.9 µM in assay [2]; 2.9 µM against KDR kinase [3]; 0.004 µM in assay [4].

For the compound `NC(=O)Cc1cccc(-n2nc(C3CCCC3)cc2NC(=O)Nc2cccc(Cl)c2Cl)c1` [Example 446, 1-(1-(3-(2-amino-2-oxoethyl)phenyl)-3-cyclopentyl-1H-pyrazol-5-yl)-3-(2,3-dichlorophenyl)urea], the IC50 at B-Raf(V599E) kinase was determined as 0.016 µM; at KDR kinase [3], 1.5 µM; in assay [4] it was 0.005 µM; against Abl kinase [5], 4.8 µM.

`O=C(Nc1cccc(Cl)c1Cl)Nc1cc(-c2cccs2)nn1-c1cccc(CC(=O)N2CC[C@H](O)C2)c1` [Example 463, 1-(2,3-dichlorophenyl)-3-(1-(3-(2-((S)-3-hydroxypyrrolidin-1-yl)-2-oxoethyl)phenyl)-3-(thiophen-2-yl)-1H-pyrazol-5-yl)urea]: the inhibition at 1 µM on B-Raf(V599E) kinase came out at 23%. For the same compound, the results for the inhibition at 10 µM on Abl kinase [1] and at KDR kinase [3] were 44% and 47%, respectively. Besides, the IC50 in assay [2] was 0.056 µM; in assay [4] it was 0.025 µM.

For `NC(=O)Cc1ccc(-n2nc(-c3ccccc3F)cc2NC(=O)Nc2cccc(Cl)c2Cl)cc1` [Example 466, 1-(1-(4-(2-amino-2-oxoethyl)phenyl)-3-(2-fluorophenyl)-1H-pyrazol-5-yl)-3-(2,3-dichlorophenyl)urea], on B-Raf(V599E) kinase, the inhibition at 1 µM is 24%. Besides, the IC50 at Abl kinase [1] (setting [7]) amounted to 1.2 µM; in assay [2], 0.007 µM; in assay [4], 0.038 µM. At KDR kinase [3], the inhibition at 10 µM worked out at 50%.

As to `NC(=O)Cc1ccc(-n2nc(C3CCCC3)cc2NC(=O)Nc2cccc(Cl)c2Cl)cc1` [Example 467, 1-(1-(4-(2-amino-2-oxoethyl)phenyl)-3-cyclopentyl-1H-pyrazol-5-yl)-3-(2,3-dichlorophenyl)urea], the IC50 against B-Raf(V599E) kinase was found to be 0.032 µM; at Abl kinase [1] (setting [7]), 4.8 µM; in assay [2] it was 0.119 µM; at KDR kinase [3], 2.9 µM; in assay [4], 0.011 µM.

As for `NC(=O)Cc1cccc(-c2ccc(C(F)(F)F)cc2NC(=O)Nc2ccc(-c3cccc4c3CNC4=O)cc2)c1` [Example 483, [1,1′-biphenyl]-2′-(3-(4-(1-oxoisoindolin-4-yl)phenyl)ureido)-4′-(trifluoromethyl)-3-acetic acid amide], the IC50 against B-Raf(V599E) kinase was found to be 0.014 µM; at Abl kinase [1] (setting [7]) it was 11.3 µM; in assay [2], 0.27 µM; on KDR kinase [3], 0.21 µM; in assay [4], 0.027 µM.

Take `O=C(Cc1cccc(-n2nc(C3CCCC3)cc2NC(=O)Nc2cccc(Cl)c2Cl)c1)NCC(O)CO` (stereo not shown) [Example 487, 1-(3-cyclopentyl-1-(3-(2-(2,3-dihydroxypropylamino)-2-oxoethyl)phenyl)-1H-pyrazol-5-yl)-3-(2,3-dichlorophenyl)urea]: the IC50 is 0.038 µM in assay [2] and 0.006 µM in assay [4]. The inhibition at 1 µM at KDR kinase [6] was found to be 20%.

Regarding `CC(Cc1cccc(-n2nc(-c3ccccc3F)cc2NC(=O)Nc2cccc(Cl)c2Cl)c1)C(N)=O` (stereo not shown) [Example 489, 1-(1-(3-(3-amino-2-methyl-3-oxopropyl)phenyl)-3-(2-fluorophenyl)-1H-pyrazol-5-yl)-3-(2,3-dichlorophenyl)urea], the IC50 in assay [2] was determined as 0.52 µM. For the same compound, the inhibition at 1 µM on KDR kinase [6] is 25%.

`CC(C)(C)c1cc(NC(=O)Nc2ccc(F)c(F)c2F)n(-c2cccc(CC(N)=O)c2)n1` [Example 491, 1-(1-(3-(2-amino-2-oxoethyl)phenyl)-3-tert-butyl-1H-pyrazol-5-yl)-3-(2,3,4-trifluorophenyl)urea]: the IC50 at B-Raf(V599E) kinase amounted to 0.007 µM; in assay [4] it was 0.013 µM. The inhibition at 10 µM on KDR kinase [3] worked out at 77%; on Abl kinase [5] (read-out: Results, % @ concentration μM), 78%.

Regarding `CC(C)(C)c1cc(NC(=O)Nc2ccc(F)c(F)c2F)n(-c2ccc(CC(=O)O)cc2)n1` [Example 492, 2-(4-(3-tert-butyl-5-(3-(2,3,4-trifluorophenyl)ureido)-1H-pyrazol-1-yl)phenyl)acetic acid], the IC50 at B-Raf(V599E) kinase came to 0.028 µM; in assay [2], 0.04 µM; in assay [4], 0.008 µM. Besides, the inhibition at 10 µM was determined as 49% on Abl kinase [1] and 50% on KDR kinase [3].

For `CC(C)(C)c1cc(NC(=O)Nc2cc(F)c(F)cc2F)n(-c2cccc(CC(N)=O)c2)n1` [Example 494, 1-(1-(3-(2-amino-2-oxoethyl)phenyl)-3-tert-butyl-1H-pyrazol-5-yl)-3-(2,4,5-trifluorophenyl)urea], the results for the IC50 (on B-Raf(V599E) kinase; in assay [2]; in assay [4]) were 0.007 µM, 0.67 µM and 0.068 µM, respectively. Besides, the inhibition at 10 µM is 96% on Abl kinase [1] and 82% on KDR kinase [3].

Turning to `CC(C)(C)c1cc(NC(=O)Nc2ccc(F)cc2F)n(-c2ccc(CC(N)=O)cc2)n1` [Example 498, 1-(1-(4-(2-amino-2-oxoethyl)phenyl)-3-tert-butyl-1H-pyrazol-5-yl)-3-(2,4-difluorophenyl)urea], the IC50 at B-Raf(V599E) kinase was found to be 0.074 µM; in assay [4], 0.041 µM. The inhibition at 10 µM was 48% at Abl kinase [1] and 60% at KDR kinase [3]. In addition, the “% @ concentration, uM” value in assay [2] (@ 1 uM) is reported as 25% @1.

As to `CC(C)(C)c1cc(NC(=O)Nc2ccc(F)cc2F)n(-c2cccc(C#N)c2)n1` [Example 499, 1-(3-tert-butyl-1-(3-cyanophenyl)-1H-pyrazol-5-yl)-3-(2,4-difluorophenyl)urea], the IC50 on B-Raf(V599E) kinase is 0.026 µM; against KDR kinase [3], 0.4 µM; in assay [4] it was 0.046 µM. The inhibition at 10 µM on Abl kinase [1] is 88%. Moreover, the “% @ concentration, uM” value is given as 78% in assay [2] (@ 0.1 uM) and 95% in assay [2] (@ 1 uM).

Turning to `NC(=O)Cc1cccc(-n2nc(-c3cccs3)cc2NC(=O)Nc2cccc(Oc3cccnc3)c2)c1` [Example 502, 1-(1-(3-(2-amino-2-oxoethyl)phenyl)-3-(thiophen-2-yl)-1H-pyrazol-5-yl)-3-(3-(pyridin-3-yloxy)phenyl)urea], the IC50 on Abl kinase [1] (setting [7]) was found to be 3.1 µM; against KDR kinase [6], 1300 nM.

With `CC(C)(C)c1cc(NC(=O)Nc2cccc(Oc3cnccn3)c2)n(-c2cccc(CC(N)=O)c2)n1` [Example 504, 1-(1-(3-(2-amino-2-oxoethyl)phenyl)-3-tert-butyl-1H-pyrazol-5-yl)-3-(3-(pyrazin-2-yloxy)phenyl)urea], the IC50 against B-Raf(V599E) kinase was determined as 0.043 µM; against Abl kinase [1] it was 0.063 µM; against KDR kinase [3], 0.049 µM; in assay [4], 0.082 µM.

On to `CNC(=O)c1cc(Oc2ccc(NC(=O)Nc3cc(C(C)(C)C)nn3-c3cccc(CC(N)=O)c3)cc2)ccn1` [Example 506, 1-(1-(3-(2-amino-2-oxoethyl)phenyl)-3-tert-butyl-1H-pyrazol-5-yl)-3-(4-(2-(methylcarbamoyl)pyridin-4-yloxy)phenyl)urea], for which the IC50 against B-Raf(V599E) kinase worked out at 0.02 µM; in assay [2], 0.042 µM; on KDR kinase [3] it was 0.021 µM; in assay [4], 0.009 µM; against Abl kinase [5] it was 0.0066 µM.

As to `CC(C)(C)c1cc(NC(=O)Nc2ccc(-c3cccc4c3CNC4=O)cc2)n(-c2cccc(CC(N)=O)c2)n1` [Example 510, 1-(1-(3-(2-amino-2-oxoethyl)phenyl)-3-tert-butyl-1H-pyrazol-5-yl)-3-(4-(1-oxoisoindolin-4-yl)phenyl)urea], the IC50 came to 0.21 µM against B-Raf(V599E) kinase; 0.47 µM in assay [2]; 0.007 µM at KDR kinase [3]; 0.12 µM in assay [4]; 0.062 µM against Abl kinase [5].

With `Cn1c(=O)c(-c2cccc(NC(=O)Nc3cc(C(C)(C)C)nn3-c3cccc(CC(N)=O)c3)c2)cc2cncnc21` [Example 513, 1-(1-(3-(2-amino-2-oxoethyl)phenyl)-3-tert-butyl-1H-pyrazol-5-yl)-3-(3-(8-methyl-7-oxo-7,8-dihydropyrido[2,3-d]pyrimidin-6-yl)phenyl)urea], the IC50 is 0.008 µM at B-Raf(V599E) kinase, 0.41 µM in assay [2], 0.012 µM in assay [4] and 0.023 µM against Abl kinase [5].

On to `Cc1ccc(NC(=O)Nc2cc(C(C)(C)C)nn2-c2cccc(CC(N)=O)c2)cc1Nc1nccc(-c2cccnc2)n1` [Example 516, 1-(1-(3-(2-amino-2-oxoethyl)phenyl)-3-tert-butyl-1H-pyrazol-5-yl)-3-(4-methyl-3-(4-(pyridin-3-yl)pyrimidin-2-ylamino)phenyl)urea], for which the IC50 against B-Raf(V599E) kinase came to 0.022 µM; in assay [2] it was 0.45 µM; on Abl kinase [5] it was 0.0018 µM.

The record behind these values is US20090312349A1, “ANTI-INFLAMMATORY MEDICAMENTS” (priority 2004, published 2009).
